Assay results taken from the SangsterLogP compilation.

Assay: method code SF-AS, from DOI: 10.1016/0045-6535(94)00381-4

COC(=O)CS(=O)(=O)c1ccc(Br)cc1
logP: 1.52

COC(=O)C1(S(=O)(=O)c2ccc(C)cc2)CC1
logP: 1.77

Cc1ccc(S(=O)(=O)C2(C(=O)OC(C)C)CCCC2)cc1
logP: 2.88

COC(=O)C1(S(=O)(=O)c2ccc(Br)cc2)CC1
logP: 2.32

CC(C)OC(=O)CS(=O)(=O)c1ccc(Cl)cc1
logP: 2.04

CC(C)(C)OC(=O)C1(S(=O)(=O)c2ccc(Cl)cc2)CC1
logP: 2.68

CCOC(=O)C1(S(=O)(=O)c2ccc(C)cc2)CC1
logP: 2.23

COC(=O)C1(S(=O)(=O)c2ccccc2)CCC1
logP: 1.63

COC(=O)CS(=O)(=O)c1ccccc1
logP: 0.93

Cc1ccc(S(=O)(=O)C2(C(=O)OC(C)C)CC2)cc1
logP: 2.52

CC(C)OC(=O)C1(S(=O)(=O)c2ccc([N+](=O)[O-])cc2)CC1
logP: 2.05

CC(C)OC(=O)C1(S(=O)(=O)c2ccc(Cl)cc2)CCCC1
logP: 3.16

CCOC(=O)C1(S(=O)(=O)c2ccc(C)cc2)CCC1
logP: 2.31

CC(C)OC(=O)C1(S(=O)(=O)c2ccc(Cl)cc2)CC1
logP: 2.64

COC(=O)C1(S(=O)(=O)c2ccccc2)CC1
logP: 1.43

COC(=O)C1(S(=O)(=O)c2ccc([N+](=O)[O-])cc2)CC1
logP: 1.33

COC(=O)CS(=O)(=O)c1ccc(Cl)cc1
logP: 1.31

COC(=O)C1(S(=O)(=O)c2ccc(Cl)cc2)CCC1
logP: 2.28

COC(=O)C1(S(=O)(=O)c2ccccc2)CCCCC1
logP: 2.3

COC(=O)C1(S(=O)(=O)c2ccc(Br)cc2)CCCCC1
logP: 2.94

Cc1ccc(S(=O)(=O)C2(C(=O)OC(C)C)CCCCC2)cc1
logP: 3.21

COC(=O)C1(S(=O)(=O)c2ccccc2)CCCC1
logP: 1.98

CC(C)OC(=O)C1(S(=O)(=O)c2ccc([N+](=O)[O-])cc2)CCC1
logP: 2.36

CC(C)OC(=O)C1(S(=O)(=O)c2ccc([N+](=O)[O-])cc2)CCCCC1
logP: 2.84

CC(C)OC(=O)C1(S(=O)(=O)c2ccc([N+](=O)[O-])cc2)CCCCCC1
logP: 3.41

COC(=O)C1(S(=O)(=O)c2ccc(Br)cc2)CCCC1
logP: 2.73

CC(C)OC(=O)C1(S(=O)(=O)c2ccc(Cl)cc2)CCCCCC1
logP: 3.83

COC(=O)C1(S(=O)(=O)c2ccc(Br)cc2)CCC1
logP: 2.45

CC(C)OC(=O)C1(S(=O)(=O)c2ccc(Cl)cc2)CCCCC1
logP: 3.49

COC(=O)CS(=O)(=O)c1ccc([N+](=O)[O-])cc1Cl
logP: 1.45

COC(=O)C1(S(=O)(=O)c2ccc(C)cc2)CCCCC1
logP: 2.54

COC(=O)C1(S(=O)(=O)c2ccc(Cl)cc2)CC1
logP: 2.03
